From ChEMBL document CHEMBL1127314, “A new potent and selective histamine H3 receptor agonist, 4-(1H-imidazol-4-ylmethyl)piperidine” (J Med Chem, 1994)

Legend:
[1] = target: Histamine H3 receptor (Cavia porcellus) (UniProt Q9JI35); assay: H3 receptor agonistic activity of the compound; type: functional
[2] = pD2 value was determined on jejunum preparations of eight different animals; type: ADME, tissue-based
[3] = target: Histamine H3 receptor (Cavia porcellus) (UniProt Q9JI35); assay: KL value determined on H3 receptor
[4] = pKi log value determined for the guinea pig H1 receptor; type: ADME

Sequence of Histamine H3 receptor (Cavia porcellus) (Q9JI35 whole entry): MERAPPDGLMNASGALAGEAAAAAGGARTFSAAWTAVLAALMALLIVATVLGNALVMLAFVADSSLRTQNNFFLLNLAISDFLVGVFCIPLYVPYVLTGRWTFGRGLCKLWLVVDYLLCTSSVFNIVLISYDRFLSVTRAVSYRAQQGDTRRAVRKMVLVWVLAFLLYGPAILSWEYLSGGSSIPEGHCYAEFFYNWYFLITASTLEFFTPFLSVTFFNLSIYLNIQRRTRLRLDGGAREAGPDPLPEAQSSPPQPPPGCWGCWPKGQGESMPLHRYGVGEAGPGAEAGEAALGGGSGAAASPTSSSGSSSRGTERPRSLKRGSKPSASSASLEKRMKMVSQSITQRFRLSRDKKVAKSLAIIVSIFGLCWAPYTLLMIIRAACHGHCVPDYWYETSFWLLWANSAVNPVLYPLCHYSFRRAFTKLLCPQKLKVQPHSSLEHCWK

Compound	KH [1]	pD2 [2]	KL [3]	Log Ki [4]
C[C@@H](N)Cc1c[nH]cn1	4.3 nM	7.8	0.22 µM	
c1nc(CC2CCNCC2)c[nH]1 [IMMEPIP]	2.7 nM	8	1.01 µM	-4.79
